Results: PMC5369539 (Chemical Science, 2016)
Bridge positions count the residues as written; N and C are the ends. Square brackets hold non-standard residues; d marks the D form. Peptide text beside a SMILES is read from it. * marks the point of attachment. X1 = CC[C@H](C)CCCCC(=O)*; Dab = NCC[C@H](N)C(=O)O

Columns and labels:
[1] = tested on: S. aureus (ATCC6538); assay: Minimum inhibitory concentration; type: cell-based; details: text summary of Table S1
[2] = tested on: E. faecalis (OG1X); assay: Minimum inhibitory concentration; type: cell-based; details: text summary of Table S1

Structure (SMILES) | activity against S. aureus (in words) [1] | activity against E. faecalis (in words) [2]
CCCCCCCCCC(=O)N[C@@H](Cc1c[nH]c2ccccc12)C(=O)N[C@H](CC(N)=O)C(=O)N[C@@H](CC(=O)O)C(=O)N[C@@H]1C(=O)NCC(=O)N[C@@H](CCCN)C(=O)N[C@@H](CC(=O)O)C(=O)N[C@H](C)C(=O)N[C@@H](CC(=O)O)C(=O)NCC(=O)N[C@H](CO)C(=O)N[C@@H]([C@H](C)CC(=O)O)C(=O)N[C@@H](CC(=O)c2ccccc2N)C(=O)O[C@@H]1C [daptomycin] | appreciable activity | tolerant
CC[C@H](C)CCCCC(=O)N[C@@H](CCN)C(=O)N[C@H](C(=O)N[C@@H](CCN)C(=O)N[C@H]1CCNC(=O)[C@H]([C@@H](C)O)NC(=O)[C@H](CCN)NC(=O)[C@H](CCN)NC(=O)[C@H](CC(C)C)NC(=O)[C@@H](Cc2ccccc2)NC(=O)[C@H](CCN)NC1=O)[C@@H](C)O [polymyxin B] (X1-[Dab]T[Dab][Dab][Dab][dF]L[Dab][Dab]T; lactam 4-C (inferred); N-terminus assumed) |  | tolerant
